From patent US10709743B2, “Pharmaceutical wound healing composition” (Council of Scientific and Industrial Research, priority 2015, dated 2020)
“And” between values parts separate entries of the source, which are not always exact repeats. Identical values can stand only once.

What was measured:
Wister rats (Male) [1] = assay: Incision wound model, wound size measurement; assay type: in vivo; set-up: unit not given here; conditions: individual animals SR NO 1-6, applied once a day
Wister rats (Male) [2] = assay: Incision wound model, wound size measurement; assay type: in vivo; set-up: unit not given here; conditions: average of six animals
Description: The animals were housed in a standard individual metal cages and room was maintained at 22±1° C. with an alternating 12 h light-dark cycle. Food and water were provided ad libitum. All the experiments on animals were conducted after obtaining permission from Institutional Animal Ethical Committee of the Institute.
Animals were divided into two groups (six animals each).
All animals of two groups were anesthetized with an aesthetic ether, and a paravertebral long incision of 4.4 cm length were made through the skin and cutaneous muscle at a distance about 1.5 cm from the middle on right side of the depilated back.
All groups (A and B) of animals received sufficient amount of formulation applied externally (as depicted in table No. 2). All the test formulations were applied once a day for 10 days starting from the day of incision. Wound-healing property was evaluated by wound length and wound closure time.
Every alternative days wound size contraction was measured. By placing transparent blotting paper carefully on the wounded part of rats marking were done by permanent marker and size of reduction in wound noted.

[3] = cited from earlier work

**Q.** What does the source list for Sericin [Group C]?
**A.** wound size (Wister rats (Male) [1]; DAY 2): 26 (2×) and 24 and 25 and 30 (2×); wound size (Wister rats (Male) [1]; DAY 10): 9 and 6 (3×) and 7 and 5; wound size (Wister rats (Male) [1]; DAY-4): 21 and 23 (2×) and 27 and 28 and 24; wound size (Wister rats (Male) [1]; DAY-6): 20 and 22 (2×) and 25 and 27 and 24; wound size (Wister rats (Male) [1]; DAY-8): 18 and 16 (3×) and 17 and 15; wound size AVG (Wister rats (Male) [2]; DAY 2): 26.83; wound size AVG (Wister rats (Male) [2]; DAY 10): 6.5; wound size AVG (Wister rats (Male) [2]; DAY-4): 24.33; wound size AVG (Wister rats (Male) [2]; DAY-6): 23.33; wound size AVG (Wister rats (Male) [2]; DAY-8): 16.33

**Q.** With silk sericin as the substance, how does the “scavenging of hydroxyl, superoxide and DPPH radicals” value ([3]; ESR and ultraviolet spectrophotometry) read?
**A.** strong scavenging capacity

**Q.** What about the “antioxidative activity on the peroxidation of linoleic acid” value ([3]; linoleic acid system) of the same substance?
**A.** potent antioxidative activity
